Patent US20020137929A1, “1 - (3-heterocyclylphenyl) isothiourea, -isourea, -guanidine and -amidine herbicidal agents” (Intellectual Property Department, BASF Aktiengesellschaft, priority 1998, published 2002)

Key:
[1] = system: SETVI (Foxtail, Green); experiment: Preemergence herbicidal evaluation; format: in vivo, Setaria viridis; settings: rated 4-5 weeks after treatment
Outline: (§1)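 Seeds were mixed with potting soil and planted on about one inch of soil, then sprayed with test compound in aqueous acetone at about 0.0156 to 0.500 kg per hectare. Plants grew under standard greenhouse care and were visually rated 0-9 against untreated controls 4-5 weeks post-treatment.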

[2] = system: ORYSAT (Rice, Tebonnet); experiment: Preemergence herbicidal evaluation; format: in vivo, Oryza sativa, (L.) Tebonnet; settings: rated 4-5 weeks after treatment
Outline: as §1

[3] = system: SAGPY (Arrowhead (Pygmaea)); experiment: Preemergence weed control under flooded paddy conditions; format: in vivo, Sagittaria pygmaea; settings: rated 3-4 weeks after treatment
Outline: (§2)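 Values are visual 0-9 scores against a control for a preemergence application into paddy flood water at about 0.0313 to 0.500 kg/ha. Greenhouse duration was three to four weeks.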

[4] = system: TRZAWR (Wheat, Winter, cv Riband); experiment: Postemergence herbicidal evaluation; format: in vivo, Triticum aestivum; settings: postemergence
Outline: (§3)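 ~2-wk seedlings; postemergence spray, 40 psi; vehicle 1:1 acetone:water + 0.5% Tween 20; rate ≈0.0156–0.500 kg/ha; greenhouse hold; scored 4–5 wk after treatment, 0–9 scale vs control; repeat tests averaged.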

[5] = system: CASOB (Sicklepod); experiment: Postemergence herbicidal evaluation; format: in vivo, Cassia obtusifolia; settings: postemergence
Outline: as §3

[6] = system: SAGPY (Arrowhead (Pygmaea)); experiment: Postemergence weed control under flooded paddy conditions; format: in vivo, Sagittaria pygmaea; settings: postemergence weeds, 3-4 weeks after treatment
Outline: (§4)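 Weeds 3 to 5 cm tall and rice seedlings at the 1.5 to 2.5 leaf stage were flooded, with water held 1.5 to 3 cm above the soil. Compounds in 50/50 v/v aqueous/acetone went into the flood water at about 0.0313 to 0.500 kg/ha. Visual 0-9 ratings versus control were made 3 to 4 weeks later.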

[7] = system: GALAP (Galium); experiment: Preemergence herbicidal evaluation; format: in vivo, Galium aparine; settings: rated 4-5 weeks after treatment
Outline: as §1

[8] = system: AMBEL (Ragweed, Common); experiment: Postemergence herbicidal evaluation; format: in vivo, Ambrosia artemisifolia; settings: postemergence
Outline: as §3

[9] = system: CYPSE (Flatsedge); experiment: Preemergence weed control under flooded paddy conditions; format: in vivo, Cyperus serotinus; settings: rated 3-4 weeks after treatment
Outline: as §2

[10] = system: MOOVA (Monochoria); experiment: as above; format: in vivo, Monochoria vaginalis; settings: rated 3-4 weeks after treatment
Outline: as §2

[11] = system: GALAP (Galium); experiment: Postemergence herbicidal evaluation; format: in vivo, Galium aparine; settings: postemergence
Outline: as §3

[12] = system: ECHORC (Watergrass (Calif.)); experiment: Postemergence weed control under flooded paddy conditions; format: in vivo, Echinochloa oryzoides; settings: postemergence weeds, 3-4 weeks after treatment
Outline: as §4

[13] = system: GLXMAW (Soybean, Williams); experiment: Postemergence herbicidal evaluation; format: in vivo, Glycine max, (L.) Merr. cv Williams; settings: postemergence
Outline: as §3

[14] = system: ECHORC (Watergrass (Calif.)); experiment: Preemergence weed control under flooded paddy conditions; format: in vivo, Echinochloa oryzoides; settings: rated 3-4 weeks after treatment
Outline: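 Silt loam, seeds in top 0.5 cm; flood held 1.5-3 cm; test cpd as acetone/water 50/50 into flood water, ~0.0313-0.500 kg/ha a.i.; greenhouse 3-4 wk; visual 0-9 score vs control.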

## CCOC(=O)CN1C(=O)C(F)SC1=Nc1cc(-n2c(=O)cc(C(F)(F)F)n(C)c2=O)c(F)cc1Cl (centres unmarked) [Compound 11, Ethyl 2-{{2-chloro-5-[3,6-dihydro-3-methyl-2,6-dioxo-4-(trifluoromethyl)-1(2H)-pyrimidinyl]-4-fluorophenyl}imino}-5-fluoro-4-oxo-3-thiazolidineacetate]
[1]; rate 0.0156 kg/ha
  SETVI preemergence herbicidal rating: 0.0
[1]; rate 0.0313 kg/ha
  SETVI preemergence herbicidal rating: 1.0
[1]; rate 0.0625 kg/ha
  SETVI preemergence herbicidal rating: 7.0
[1]; rate 0.1250 kg/ha
  SETVI preemergence herbicidal rating: 7.5
[1]; rate 0.2500 kg/ha
  SETVI preemergence herbicidal rating: 9.0
[2]; rate 0.0156 kg/ha
  ORYSAT preemergence herbicidal rating: 0.0
[2]; rate 0.0313 kg/ha
  ORYSAT preemergence herbicidal rating: 0.0
[2]; rate 0.0625 kg/ha
  ORYSAT preemergence herbicidal rating: 0.0
[2]; rate 0.1250 kg/ha
  ORYSAT preemergence herbicidal rating: 2.0
[2]; rate 0.2500 kg/ha
  ORYSAT preemergence herbicidal rating: 4.0
[3]; 0.0313 kg/ha
  Herbicidal rating SAGPY: 0.0
[3]; 0.0625 kg/ha
  Herbicidal rating SAGPY: 0.0
[3]; 0.1250 kg/ha
  Herbicidal rating SAGPY: 0.0
[3]; 0.2500 kg/ha
  Herbicidal rating SAGPY: 0.0
[4]; rate 0.0156 kg/ha
  TRZAWR herbicidal rating: 4.5
[4]; rate 0.0313 kg/ha
  TRZAWR herbicidal rating: 4.5
[4]; rate 0.0625 kg/ha
  TRZAWR herbicidal rating: 5.5
[4]; rate 0.1250 kg/ha
  TRZAWR herbicidal rating: 6.0
[5]; rate 0.0156 kg/ha
  CASOB herbicidal rating: 0.0
[5]; rate 0.0313 kg/ha
  CASOB herbicidal rating: 0.0
[5]; rate 0.0625 kg/ha
  CASOB herbicidal rating: 0.0
[5]; rate 0.1250 kg/ha
  CASOB herbicidal rating: 3.0
[6]; rate 0.0313 kg/ha
  Herbicidal rating SAGPY: 0.0
[6]; rate 0.0625 kg/ha
  Herbicidal rating SAGPY: 0.0
[6]; rate 0.1250 kg/ha
  Herbicidal rating SAGPY: 0.0
[6]; rate 0.2500 kg/ha
  Herbicidal rating SAGPY: 0.0
[7]; rate 0.0156 kg/ha
  GALAP preemergence herbicidal rating: 0.0
[7]; rate 0.0313 kg/ha
  GALAP preemergence herbicidal rating: 0.0
[7]; rate 0.0625 kg/ha
  GALAP preemergence herbicidal rating: 0.0
[7]; rate 0.1250 kg/ha
  GALAP preemergence herbicidal rating: 0.0
[7]; rate 0.2500 kg/ha
  GALAP preemergence herbicidal rating: 9.0
[8]; rate 0.0156 kg/ha
  AMBEL herbicidal rating: 1.0
[8]; rate 0.0313 kg/ha
  AMBEL herbicidal rating: 9.0
[8]; rate 0.0625 kg/ha
  AMBEL herbicidal rating: 9.0
[8]; rate 0.1250 kg/ha
  AMBEL herbicidal rating: 9.0
[9]; 0.0313 kg/ha
  Herbicidal rating CYPSE: 0.0
[9]; 0.0625 kg/ha
  Herbicidal rating CYPSE: 0.0
[9]; 0.1250 kg/ha
  Herbicidal rating CYPSE: 0.0
[9]; 0.2500 kg/ha
  Herbicidal rating CYPSE: 0.0
[10]; 0.0313 kg/ha
  Herbicidal rating MOOVA: 0.0
[10]; 0.0625 kg/ha
  Herbicidal rating MOOVA: 1.0
[10]; 0.1250 kg/ha
  Herbicidal rating MOOVA: 4.0
[10]; 0.2500 kg/ha
  Herbicidal rating MOOVA: 7.0
[11]; rate 0.0156 kg/ha
  GALAP herbicidal rating: 3.0
[11]; rate 0.0313 kg/ha
  GALAP herbicidal rating: 5.0
[11]; rate 0.0625 kg/ha
  GALAP herbicidal rating: 6.0
[11]; rate 0.1250 kg/ha
  GALAP herbicidal rating: 6.0
[12]; rate 0.0313 kg/ha
  Herbicidal rating ECHORC: 1.0
[12]; rate 0.0625 kg/ha
  Herbicidal rating ECHORC: 2.0
[12]; rate 0.1250 kg/ha
  Herbicidal rating ECHORC: 2.0
[12]; rate 0.2500 kg/ha
  Herbicidal rating ECHORC: 3.0
[13]; rate 0.0156 kg/ha
  GLXMAW herbicidal rating: 5.0
[13]; rate 0.0313 kg/ha
  GLXMAW herbicidal rating: 7.5
[13]; rate 0.0625 kg/ha
  GLXMAW herbicidal rating: 9.0
[13]; rate 0.1250 kg/ha
  GLXMAW herbicidal rating: 9.0
[14]; 0.0313 kg/ha
  Herbicidal rating ECHORC: 1.0
[14]; 0.0625 kg/ha
  Herbicidal rating ECHORC: 2.0
[14]; 0.1250 kg/ha
  Herbicidal rating ECHORC: 2.0
[14]; 0.2500 kg/ha
  Herbicidal rating ECHORC: 3.0
